The source of these data is patent publication US8207211B2, “Photosensitizers for targeted photodynamic therapy” (The General Hospital Corporation, priority 2005, dated 2012).

The experiment concerns E. coli. Description: Photodynamic inactivation (PDI), CFU survival, white light (red light for TBO). The following applies: 10 μM. In kind it is cell-based, Escherichia coli. As for the experimental part: Staphylococcus aureus (ATCC #35556), Escherichia coli (ATCC #25922), and Pseudomonas aeruginosa (ATCC #BAA-47; PAO1) were cultured in brain-heart infusion (BHI) broth (Difco, BD Diagnosttic Systems, Sparks, Md.) at 37° C. in aerobic conditions in a shaker at 150 rpm. Candida albicans (ATCC #18804) is grown in YM broth (Difco). Exponential cultures obtained by reculturing stationary overnight precultures were used for experiments.
E. coli, P. aeruginosa, and S. aureus are grown in fresh medium for approximately 1 hr to a density of about 10^8 cells/ml; the OD values at 650 nm are 0.6, 0.8, and 0.8, respectively. C. albicans is grown for approximately 4 hr to an approximate density of 10^8 cells/ml, corresponding to an OD of 6 at 650 nm (measured at 10-fold dilution). Cells were used for experiments in the mid-log growth phase.
A noncoherent lamp with filtered liquid light guides, e.g., a LumaCare™ LC122 lamp (MBG Technologies, Inc., Newport Beach, Calif.) was used to provide illumination of PS. More specifically, for illumination of fullerenes, a broad-band white light band pass filter (400-700 nm) was used, whereas for TBO, a band pass filter at 620-650 nm was used. The lamp was adjusted to give a uniform spot of about 4 cm diameter with an irradiance of 200 mW/cm^2, as measured with a power meter, e.g., a model DMM 199 meter with 201 Standard head (Coherent, Santa Clara, Calif.).
Typically, derivatized fullerenes prepared as described above are dissolved in DMSO to provide stock solutions having final concentrations of about 5 mM. […] All stock solutions were stored in the dark at room temperature.
In some experiments, for example in studies described in Examples below, suspensions of S. aureus cells (10^8 per ml) were incubated with derivatized fullerenes such as NI-1-3 and CI1-3 at a concentration of 100 μM in PBS at room temperature for 10 min. In other experiments, the bacterial suspension was centrifuged (4000×g for 10 min) after incubation and resuspended in fresh PBS before illumination; the latter procedure was referred to herein as a “wash.” E. coli, P. aeruginosa, and C. albicans were used at concentrations of about 10^8 cells per ml.
Illumination was carried out from above on microbial cell suspensions in wells of a 24-well plate. Aliquots were removed at times corresponding to the delivery of calculated fluences of light, and were serially diluted in PBS and streaked on square BHI or YM agar plates according to the method of Jett et al. (Jett, B. D., Hatter, K. L., Huycke, M. M., and Gilmore, M. S. (1997). Simplified agar plate method for quantifying viable bacteria. Biotechniques 23, 648-650). Survival fractions were calculated with reference to cells incubated in PBS alone. Values on killing curves at 0 J/cm^2 represent the dark toxicity of the fullerenes or other PS tested. Control cells were treated with light and no PS and also analyzed for viability.

Take `C[N+]1(C)Cc2c(c3c4ccc5c6ccc7c8ccc9c%10c%11c%12c(c2c2c3c3c4c5c4c6c7c5c8c9c%11c6c(c%122)c3c4c56)C2C[N+](C)(C)CC%102)C1` (stereo not drawn) [CI2]: the “change of E. coli killing in the presence of serum versus no serum” value (10 min, 10% FBS, with a wash, white light) was “about 1 log”. Moreover, for the setting “10 min, white light up to 50 J/cm^2”, the “PDT activity against E. coli” value is “effectively killed”. Moreover, the “killing of E. coli” value (with a wash, 2 J/cm^2 white light) was found to be 4 logs.
